Here are results for 35 compounds from publication PMC9458065, “Discovery of Quinacrine as a Potent Topo II and Hsp90 Dual-Target Inhibitor, Repurposing for Cancer Therapy” (Molecules, 2022).

Counter-ions that a name gives are not always drawn.

Experiment [1] has as its system HL60 (HL−60 human leukemia cell). Put plainly: cells. Also noted: MTT cell proliferation assay, OD 570 nm, IC50 from triplicate dose-response. To be noted: MTT, 48 h. Here is the method:
The cell proliferation assay was evaluated using the MTT assay as described by Mosmann, with modifications. Cells were seeded into 96−well plates (5 × 10^3 cells/well) and exposed to various concentrations of compounds. After 48 h of treatment, 20 μL of 2.5 mg/mL MTT reagent was added to each well, and the cells were further incubated for 4 h at 37 ℃. The cells in each well were then treated with 100 μL of dimethyl sulfoxide (DMSO), and the optical density (OD) was recorded at 570 nm using a microplate reader (Bio−Tek). All experiments were performed in parallel three times, and the IC50 values were derived from the mean OD values of triplicate tests versus the drug concentration curves. […] HL−60 human leukemia cell is sensitive to Topo II inhibitors, which are commonly used to evaluate the inhibitory effect of Topo II inhibitors on proliferation.

Experiment [2] has as its target T1, Hsp90α (Homo sapiens, UniProt P07900).
T1 construct: gene HSP90AA1
Put plainly: malachite green ATPase assay. Format: biochemical. To be noted: read-out: % inhibition at 100 μM.

Experiment [3] has as its target T2, hTopo IIα ATPase (Homo sapiens, UniProt P11388).
T2 construct: gene TOP2A; ATPase region, residues 29-428 (400 residues), N-terminal 6xHis, pET28a, E. coli BL21 (DE3)
Put plainly: malachite green ATPase assay. Format: biochemical. To be noted: 100 µM; […] ATP, […] MgCl2, pH […] °C, […] min; relative inhibition rate, not absolute inhibition. The source says: malachite green ATPase assay on hTopo IIα ATPase

The target in experiment [4] is T3, human Topo IIα (Homo sapiens, UniProt P11388).
T3 construct: gene TOP2A; full-length enzyme of a commercial relaxation kit (Inspiralis)
T3 sequence (P11388 whole entry): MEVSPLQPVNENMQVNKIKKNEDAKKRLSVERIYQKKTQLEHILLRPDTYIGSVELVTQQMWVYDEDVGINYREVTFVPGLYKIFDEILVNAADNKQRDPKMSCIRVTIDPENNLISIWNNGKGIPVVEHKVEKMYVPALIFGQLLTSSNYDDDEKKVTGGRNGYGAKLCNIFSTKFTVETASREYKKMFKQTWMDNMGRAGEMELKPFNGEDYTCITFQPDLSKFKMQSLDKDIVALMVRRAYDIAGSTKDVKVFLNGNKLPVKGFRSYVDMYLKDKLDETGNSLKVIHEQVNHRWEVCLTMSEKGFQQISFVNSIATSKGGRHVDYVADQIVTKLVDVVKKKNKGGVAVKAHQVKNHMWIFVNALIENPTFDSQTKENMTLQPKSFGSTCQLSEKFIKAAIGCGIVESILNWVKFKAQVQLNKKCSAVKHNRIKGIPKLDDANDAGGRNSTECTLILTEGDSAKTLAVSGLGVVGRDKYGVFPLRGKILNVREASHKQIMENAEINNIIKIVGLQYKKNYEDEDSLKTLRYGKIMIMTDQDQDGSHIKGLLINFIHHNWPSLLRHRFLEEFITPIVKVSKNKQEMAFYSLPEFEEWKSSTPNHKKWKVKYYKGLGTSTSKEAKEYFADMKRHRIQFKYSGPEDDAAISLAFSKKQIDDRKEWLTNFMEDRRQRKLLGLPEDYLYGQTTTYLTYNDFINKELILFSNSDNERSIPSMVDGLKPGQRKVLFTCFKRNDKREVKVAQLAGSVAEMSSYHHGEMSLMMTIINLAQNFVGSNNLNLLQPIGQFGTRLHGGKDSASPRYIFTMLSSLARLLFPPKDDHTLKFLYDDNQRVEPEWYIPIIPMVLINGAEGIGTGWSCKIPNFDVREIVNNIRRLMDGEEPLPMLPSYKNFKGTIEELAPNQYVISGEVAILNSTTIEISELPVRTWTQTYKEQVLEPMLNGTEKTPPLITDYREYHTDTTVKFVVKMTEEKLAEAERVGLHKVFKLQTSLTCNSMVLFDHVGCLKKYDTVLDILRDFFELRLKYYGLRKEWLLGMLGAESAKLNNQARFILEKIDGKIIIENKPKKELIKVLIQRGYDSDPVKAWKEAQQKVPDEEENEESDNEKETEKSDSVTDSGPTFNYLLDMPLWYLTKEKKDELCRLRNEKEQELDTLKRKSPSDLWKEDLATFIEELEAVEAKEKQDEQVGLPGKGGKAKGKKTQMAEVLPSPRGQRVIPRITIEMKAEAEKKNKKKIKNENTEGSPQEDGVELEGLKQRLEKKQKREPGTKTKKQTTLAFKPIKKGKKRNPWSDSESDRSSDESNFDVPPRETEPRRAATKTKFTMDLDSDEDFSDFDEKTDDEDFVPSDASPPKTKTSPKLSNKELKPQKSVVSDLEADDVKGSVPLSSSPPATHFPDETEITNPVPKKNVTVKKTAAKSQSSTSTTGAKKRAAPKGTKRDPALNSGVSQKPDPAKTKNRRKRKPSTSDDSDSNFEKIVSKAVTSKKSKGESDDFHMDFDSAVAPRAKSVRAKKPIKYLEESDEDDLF
Put plainly: pBR322 DNA relaxation, agarose gel. It is filed as biochemical.

Experiment [5] addresses T4, Hsp90α N−ATPase (9−236) (Homo sapiens, UniProt P07900).
T4 construct: gene HSP90AA1
Put plainly: fluorescence polarization displacement of GM-FITC. On the technique in general: Polarisation of emitted light reports the rotation of a fluorescent probe.

T2 sequence (P11388 29-428): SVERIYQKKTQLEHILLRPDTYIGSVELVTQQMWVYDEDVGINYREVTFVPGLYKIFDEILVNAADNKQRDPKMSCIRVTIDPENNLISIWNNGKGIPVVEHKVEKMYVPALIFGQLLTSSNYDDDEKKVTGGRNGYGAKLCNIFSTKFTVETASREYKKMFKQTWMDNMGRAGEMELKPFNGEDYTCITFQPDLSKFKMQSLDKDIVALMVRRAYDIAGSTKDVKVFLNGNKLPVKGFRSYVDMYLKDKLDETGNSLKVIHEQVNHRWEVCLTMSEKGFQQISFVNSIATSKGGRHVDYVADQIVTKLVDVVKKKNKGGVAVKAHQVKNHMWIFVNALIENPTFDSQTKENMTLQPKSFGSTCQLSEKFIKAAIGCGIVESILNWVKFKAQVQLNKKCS

Regarding `O=C1C(O)=C([C@H]2CC[C@H](c3ccc(Cl)cc3)CC2)C(=O)c2ccccc21` [2−G7, Atovaquone], the midpoint of inhibition in experiment [1], the IC50, lay at 9.43 µM.
Same read-out and setting: the value for `N=C(N)NC(=O)Cc1c(Cl)cccc1Cl` [2−H11, Guanfacine HCl] was > 25 µM; that for `CC[N+](CC)(CC)CCOc1cccc(OCC[N+](CC)(CC)CC)c1OCC[N+](CC)(CC)CC` [3−C11, Gallamine triethiodide] was > 25 µM; that for `CN1CCN(CCCN2c3ccccc3Sc3ccc(C(F)(F)F)cc32)CC1` [3−E6, Trifluoperazine 2HCl] was > 25 µM.
In the case of `CC(=O)Nc1ccc(CC(=O)O)cc1` [3−H6, Actarit], the 50% inhibitory concentration (IC50) (as a rule, the concentration that inhibits the measured activity by half) in experiment [1] came to 8.02 µM.
In the case of `O=C(c1ccc(OCCN2CCCCC2)cc1)c1c(-c2ccc(O)cc2)sc2cc(O)ccc12` [4−C3, Raloxifene HCl], the IC50 in experiment [1] is 7.2 µM.
Consider `Nc1ccc(C(=O)O)c(O)c1` [5−E4, 4−aminosalicylic acid], for which, in experiment [1], the IC50 is > 25 µM.
Still for that read-out and setting: the value for `Nc1ccc(O)c(C(=O)O)c1` [5−E5, 5−aminosalicylic acid] was > 25 µM.
On to `CC1(C)S[C@@H]2[C@H](NC(=O)[C@H](N)c3ccccc3)C(=O)N2[C@H]1C(=O)O` [5−E6, Ampicillin trihydrate], for which the IC50 in experiment [1] was > 25 µM.
`COc1ccc(C[C@@H]2c3cc(OC)c(OC)cc3CC[N@+]2(C)CCC(=O)OCCCCCOC(=O)CC[N@@+]2(C)CCc3cc(OC)c(OC)cc3[C@H]2Cc2ccc(OC)c(OC)c2)cc1OC` [5−E11, Atracurium besylate]: in experiment [1], half-maximal inhibition (IC50) required 22.9 µM.
With `COc1cc2nc(N3CCN(C(=O)C4COc5ccccc5O4)CC3)nc(N)c2cc1OC` (centres unmarked) [6−B10, Doxazosin mesylate], the concentration for half-maximal inhibition (IC50) in experiment [1] is 19.7 µM.
As for `CCN(CC)CCCC(C)Nc1c2ccc(Cl)cc2nc2ccc(OC)cc12` (centres unmarked) [7−F2, quinacrine], the IC50 came out at 5.22 µM in experiment [1], 6.18 µM in experiment [4] and 13.6 µM in experiment [5]. The inhibition (commonly the share of the control response that was lost under treatment) at 100 µM in experiment [2] was ~70%. Further, the “Topo II ATPase RIR (%) *” value in experiment [3] was found to be 42.3%.
Turning to `CN[C@@H]1[C@H](O[C@H]2[C@H](O[C@H]3[C@H](O)[C@@H](O)[C@H](N=C(N)N)[C@@H](O)[C@@H]3N=C(N)N)O[C@@H](C)[C@]2(O)C=O)O[C@@H](CO)[C@H](O)[C@H]1O` [7−H3, Streptomycin sulfate], in experiment [1], the IC50 was > 25 µM.
Regarding `COc1ncnc(NS(=O)(=O)c2ccc(N)cc2)c1OC` [7−H4, Sulfadoxine], the IC50 in experiment [1] was > 25 µM.
As for `Nc1ccc(S(=O)(=O)Nc2ncccn2)cc1` [7−H5, Sulfadiazine], in experiment [1], the 50% inhibitory concentration (IC50) is > 25 µM.
On the same count and under the same terms, the value for `COc1cc(NS(=O)(=O)c2ccc(N)cc2)nc(OC)n1` [7−H6, Sulfadimethoxine] was > 25 µM.
Turning to `O=C(O)c1cc(/N=N/c2ccc(S(=O)(=O)Nc3ccccn3)cc2)ccc1O` [7−H7, Sulfasalazine], the IC50 in experiment [1] is > 25 µM.
On the same count and under the same terms, the value for `CCOc1ccccc1OCCN[C@H](C)Cc1ccc(OC)c(S(N)(=O)=O)c1` [7−H8, Tamsulosin HCl] was > 25 µM.
For the compound `CCCc1nc2c(C)cc(-c3nc4ccccc4n3C)cc2n1Cc1ccc(-c2ccccc2C(=O)O)cc1` [7−H9, Telmisartan], the half-inhibitory concentration (IC50) in experiment [1] is > 25 µM. Moreover, the “Topo II ATPase RIR (%) *” value in experiment [3] worked out at 79.4%.
As to `CN1C(C(=O)Nc2ccccn2)=C(O)c2sccc2S1(=O)=O` [7−H10, Tenoxicam], the half-maximal inhibitory concentration (IC50) in experiment [1] is > 25 µM.
In the case of `COc1cc2nc(N3CCN(C(=O)C4CCCO4)CC3)nc(N)c2cc1OC` (centres unmarked) [7−H11, Terazosin HCl], the IC50 in experiment [1] is > 25 µM.
Consider `N[C@@H](Cc1cc(I)c(Oc2cc(I)c(O)c(I)c2)c(I)c1)C(=O)O` [8−H9, L−thyroxine], for which the 50% inhibitory concentration (IC50) in experiment [1] was > 25 µM.
For `CN[C@@H]1C[C@H]2O[C@@](C)([C@@H]1OC)n1c3ccccc3c3c4c(c5c6ccccc6n2c5c31)C(=O)NC4` [K−B6, Staurosporine], in experiment [3], the “Topo II ATPase RIR (%) *” value was 111.2%.
As to `N#C/C(=C\c1ccc(O)c(O)c1)C(N)=S` [K−C2, Tyrphostin 47], in experiment [1], the IC50 is > 25 µM. For the same compound, the “Topo II ATPase RIR (%) *” value in experiment [3] is listed as 90.3%.
Consider `N#CC(C#N)=C(N)/C(C#N)=C/c1cc(O)c(O)c(O)c1` [K−C3, Tyrphostin 51], for which the concentration for half-maximal inhibition (IC50) in experiment [1] is > 25 µM. Further, in experiment [3], the “Topo II ATPase RIR (%) *” value is reported as 85.8%.
With `CO[C@@H]1[C@H](N(C)C(=O)c2ccccc2)C[C@H]2O[C@]1(C)n1c3ccccc3c3c4c(c5c6ccccc6n2c5c31)C(=O)NC4` [K−C10, PKC−412], it took 0.75 µM to reach half-maximal inhibition in experiment [1] (IC50).
For the compound `Oc1cc(O)cc(/C=C/c2ccc(O)c(O)c2)c1` [K−C11, Piceatannol], inhibition in experiment [1] was half-maximal at 12.1 µM (IC50). In experiment [3], the “Topo II ATPase RIR (%) *” value is recorded as 70.5%.
For the compound `N#C/C(=C\c1ccc(O)c(O)c1)C(=O)NCc1ccccc1` [K−D1, AG−490], half-maximal inhibition in experiment [1] (IC50) required 19 µM. For the same compound, the “Topo II ATPase RIR (%) *” value in experiment [3] is recorded as 61.6%.
As for `COC[C@H]1OC(=O)c2coc3c2[C@@]1(C)C1=C(C3=O)[C@@H]2CCC(=O)[C@@]2(C)C[C@H]1OC(C)=O` [K−D6, Wortmannin], the IC50 in experiment [1] worked out at 13.3 µM.
For `CN(C)CCCn1cc(C2=C(c3c[nH]c4ccccc34)C(=O)NC2=O)c2ccccc21` [K−D7, GF 109203X], the IC50 in experiment [1] was 9.51 µM.
In the case of `Cc1cc(O)c2c(=O)c3c(O)cc(O)c4c5c(O)cc(O)c6c(=O)c7c(O)cc(C)c8c1c2c(c34)c(c78)c65` [K−D8, Hypericin], in experiment [1], the IC50 is > 25 µM.
On to `Cn1cc(C2=C(c3cn(CCCSC(=N)N)c4ccccc34)C(=O)NC2=O)c2ccccc21` [K−D9, Ro 31−8220], for which the concentration for half-maximal inhibition (IC50) in experiment [1] amounted to 1.18 µM. In addition, in experiment [3], the “Topo II ATPase RIR (%) *” value is reported as 99.7%.
Take `CCCCCCCCCCCCC/C=C/[C@@H](O)[C@@H](N)CO` [K−D10, Sphingosine]: in experiment [1], the IC50 worked out at 11.1 µM. In experiment [3], the “Topo II ATPase RIR (%) *” value came to 94.3%.
In experiment [1], `O=c1c(-c2ccc(O)cc2)coc2cc(O)ccc12` [K−F12, Daidzein] yielded a half-inhibitory concentration (IC50) of 3.02 µM. Besides, in experiment [3], the “Topo II ATPase RIR (%) *” value turned out to be 101.2%.
Turning to `COc1cc([C@@H]2c3cc4c(cc3[C@@H](O[C@@H]3O[C@@H]5CO[C@@H](C)O[C@H]5[C@H](O)[C@H]3O)[C@H]3COC(=O)[C@H]23)OCO4)cc(OC)c1O` [VP−16], 0.17 µM corresponded to half-maximal inhibition in experiment [1] (IC50).
